In patent US11466010B2, “Toll-like receptor 8 (TLR8) specific antagonists and methods of making and uses thereof” (The Regents of the University of Colorado, a body corporate, priority 2017, dated 2022):

Columns and labels:
human TLR8 transgene = biological target: T1, human TLR8 transgene (Homo sapiens, UniProt Q9NR97); assay: IL-12p40 production in splenocytes from hTLR8tg/TLR7-KO mice, TLR8 agonist ORN8L; format: cell-based, mouse; conditions: ORN8L 100 ug/mL, 48 hours
T1 construct: expressed in transfected cells; host or cells: primary splenocytes from hTLR8tg/TLR7-KO mice
T1 sequence (Q9NR97 27-1041): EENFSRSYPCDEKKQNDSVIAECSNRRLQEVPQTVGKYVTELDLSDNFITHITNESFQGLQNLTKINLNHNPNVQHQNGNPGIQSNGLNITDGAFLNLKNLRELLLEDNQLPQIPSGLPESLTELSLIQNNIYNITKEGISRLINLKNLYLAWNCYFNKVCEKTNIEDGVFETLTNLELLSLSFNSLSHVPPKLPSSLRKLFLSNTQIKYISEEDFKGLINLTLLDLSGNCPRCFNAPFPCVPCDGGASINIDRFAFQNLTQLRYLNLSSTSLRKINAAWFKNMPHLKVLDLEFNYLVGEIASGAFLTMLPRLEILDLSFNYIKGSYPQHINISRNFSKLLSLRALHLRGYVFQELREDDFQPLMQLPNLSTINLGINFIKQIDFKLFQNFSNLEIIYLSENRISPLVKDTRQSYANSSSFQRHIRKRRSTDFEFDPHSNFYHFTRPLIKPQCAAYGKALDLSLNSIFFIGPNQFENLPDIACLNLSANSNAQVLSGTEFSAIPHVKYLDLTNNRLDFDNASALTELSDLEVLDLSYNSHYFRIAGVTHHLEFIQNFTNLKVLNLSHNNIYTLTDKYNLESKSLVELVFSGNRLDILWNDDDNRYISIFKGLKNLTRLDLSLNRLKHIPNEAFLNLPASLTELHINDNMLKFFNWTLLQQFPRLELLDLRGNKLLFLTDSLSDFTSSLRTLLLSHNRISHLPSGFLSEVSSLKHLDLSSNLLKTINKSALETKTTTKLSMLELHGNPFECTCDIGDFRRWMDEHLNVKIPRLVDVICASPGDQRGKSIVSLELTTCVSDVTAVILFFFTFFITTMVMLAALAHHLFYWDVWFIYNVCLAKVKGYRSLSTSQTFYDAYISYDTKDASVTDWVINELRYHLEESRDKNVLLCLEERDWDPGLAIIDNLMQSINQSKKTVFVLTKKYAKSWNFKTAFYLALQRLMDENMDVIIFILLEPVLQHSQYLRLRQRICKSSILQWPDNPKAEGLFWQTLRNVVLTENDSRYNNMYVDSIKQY
Description: Activity on primary mouse splenocytes: To assess TLR8 and TLR9 activity, spleens were isolated from TLR7 knock-out mice harboring a human TLR8 transgene (hTLR8tg/TLR7-KO). Splenocytes were prepared by dissociation through a cell strainer and removal of red blood cells with lysis buffer. Splenocytes were incubated with a dilution series of compounds and a constant amount of a TLR8 agonist (RNA oligonucleotide ORN8L) or a TLR9 agonist (CpG-containing phosphorothioate DNA oligonucleotide 1018). After 48 hours, culture supernatants were collected and analyzed for IL-12p40 production. Curves represent activity from a single spleen.

[1] = tested on: TNF-α production in PBMCs from RA patients; assay: TNF-α level in PBMCs harvested from RA patients; format: cell-based, human; conditions: PBMCs from RA patients and one AOSD patient; dose-dependent
[2] = tested on: TNF-α production in PBMCs from an AOSD patient; assay: TNF-α level in PBMCs harvested from an AOSD patient; format: cell-based, human
Description: But there is a lack of appropriate rodent models because TLR8 is not functional in either mice or rats. Therefore, the TLR8 inhibitors of this disclosure were tested in human specimens harvested from patients with osteoarthritis (OA), rheumatoid arthritis (RA), and adult onset-Still's disease (AOSD). It is well established that TNF-α and IL-1β are key cytokines in the process of chronic joint inflammation in cartilage. Therefore, synovial cells were isolated from synovial tissue of patients who underwent joint replacement surgery due to severe OA. Previous studies have indicated these pathological tissues express both TLR7 and TLR8 with elevated production of various cytokines, contributing to extensive articular destruction and functional decline.

TLR8 = biological target: T2, TLR8 (Homo sapiens, UniProt Q9NR97); assay: Gel filtration chromatography of TLR8 dimerization; format: binding; conditions: diluted TLR8, dose-dependent
T2 construct: hTLR8, residues 27-827; made in house
T2 sequence (Q9NR97 27-827): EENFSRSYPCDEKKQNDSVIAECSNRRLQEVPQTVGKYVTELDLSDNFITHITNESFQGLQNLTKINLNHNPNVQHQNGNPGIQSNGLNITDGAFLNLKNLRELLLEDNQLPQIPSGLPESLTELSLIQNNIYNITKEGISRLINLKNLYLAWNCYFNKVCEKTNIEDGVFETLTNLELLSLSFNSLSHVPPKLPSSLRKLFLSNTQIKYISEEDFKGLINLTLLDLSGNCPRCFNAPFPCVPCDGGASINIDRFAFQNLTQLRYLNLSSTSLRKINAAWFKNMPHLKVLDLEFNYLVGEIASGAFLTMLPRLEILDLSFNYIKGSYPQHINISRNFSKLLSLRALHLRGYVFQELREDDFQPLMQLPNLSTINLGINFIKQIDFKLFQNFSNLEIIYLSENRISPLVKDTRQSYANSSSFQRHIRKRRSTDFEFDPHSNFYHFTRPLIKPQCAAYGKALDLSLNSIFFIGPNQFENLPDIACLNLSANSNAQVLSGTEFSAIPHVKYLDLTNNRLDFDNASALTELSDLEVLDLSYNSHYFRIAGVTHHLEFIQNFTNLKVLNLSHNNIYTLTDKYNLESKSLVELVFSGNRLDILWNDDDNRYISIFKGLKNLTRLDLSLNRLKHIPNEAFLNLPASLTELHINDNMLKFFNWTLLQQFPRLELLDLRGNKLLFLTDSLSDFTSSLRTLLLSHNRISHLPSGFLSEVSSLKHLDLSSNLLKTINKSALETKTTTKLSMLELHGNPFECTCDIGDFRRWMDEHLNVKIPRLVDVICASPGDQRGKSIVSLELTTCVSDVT
Description: Gel filtration chromatography with diluted TLR8 proteins, in which TLR8 exists as a monomer, was conducted to determine the dimerization state of TLR8 in the absence and presence of different ligands (FIGS. 10A and 10B).

With `COc1ccc2c(-c3ccc(O)c(C)c3)ccnc2c1` [Compound 11a, 2-Methyl-4-(7-methoxyl-4-quinolinyl)-phenol] the “IL-12p40 production as a monitor of TLR8 signaling” value (human TLR8 transgene) was “inhibition”, the “TNF-α level in patient PBMCs” value [1] was “significantly suppressed” and the “TNF-α level in PBMCs from an AOSD patient” value [2] was “dose-dependent suppression”.

`Cc1cc(-c2ccnc3cc(O)ccc23)ccc1O` [Compound 11b, 2-Methyl-4-(7-hydroxyl-4-quinolinyl)-phenol] was tested, and the “IL-12p40 production as a monitor of TLR8 signaling” value (human TLR8 transgene) was “inhibition” and the “retention volume of TLR8 (dimer stabilization in solution)” value (TLR8) was “smaller retention volume”.
